These results are taken from publication PMC3715397 (Bioorganic & medicinal chemistry, 2013).

“Also recorded” adds a separate entry of the source.

This test has as its target M. ramosa APAH (Mycoplana ramosa, UniProt Q48935). Put plainly: Fluorimetric APAH inhibition assay. The class given is biochemical. The following applies: for Inhibitory potency against APAH, IC50 range in words: qualitative range stated in text.

Chain of M. ramosa APAH (Q48935 whole entry): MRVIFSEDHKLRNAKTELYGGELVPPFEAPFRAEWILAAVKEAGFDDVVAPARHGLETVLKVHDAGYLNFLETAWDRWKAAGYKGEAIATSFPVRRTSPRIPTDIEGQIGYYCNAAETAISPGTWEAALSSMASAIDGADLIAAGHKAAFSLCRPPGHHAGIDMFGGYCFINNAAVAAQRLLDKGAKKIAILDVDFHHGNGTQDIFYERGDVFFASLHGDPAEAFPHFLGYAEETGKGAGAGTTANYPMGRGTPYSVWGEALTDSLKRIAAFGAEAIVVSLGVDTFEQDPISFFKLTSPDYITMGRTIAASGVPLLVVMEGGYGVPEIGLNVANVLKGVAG

As for `Cl.Cl.NCCCNCCCCCB(O)O` [X, 5-[(3-aminopropyl)amino]pentylboronic acid dihydrochloride], the “Inhibitory potency against APAH, IC50 range in words” value (“Inhibitory potency against APAH” for short) is “mid-micromolar range”.

Take `Cl.Cl.NCCCNCCCCCC(=O)C(F)(F)F` [IV, 7-[(3-aminopropyl)amino]-1,1,1-trifluoroheptan-2-one dihydrochloride]: the IC50 is 0.038 mM and the “Inhibitory potency against APAH” value is listed as “nanomolar range; also recorded: nanomolar inhibitory potency”.

As to `Cl.Cl.NCCCNCCCCCC(=O)O` [I, 6-[(3-aminopropyl)amino]hexanoic acid dihydrochloride], the “Inhibitory potency against APAH” value was “millimolar range”.

In the case of `Cl.Cl.NCCCNCCCCCC(=O)NO` [III, 6-[(3-aminopropyl)amino]-N-hydroxyhexanamide dihydrochloride], the “Inhibitory potency against APAH” value is recorded as “nanomolar range; also recorded: nanomolar inhibitory potency”.

For `CC(=O)SCCCCCNCCCN.Cl.Cl` [VII, S-{5-[(3-aminopropyl)amino]pentyl} thioacetate dihydrochloride], the “Inhibitory potency against APAH” value is reported as “millimolar range”.

As for `COCC(=O)CCCCCNCCCN.Cl.Cl` [VI, 7-[(3-aminopropyl)amino]-1-methoxyheptan-2-one dihydrochloride], the “Inhibitory potency against APAH” value is on record as “mid-micromolar range”.

As to `Cl.Cl.NCCCNCCCCCS` [VIII, 5-[(3-aminopropyl)amino]pentane-1-thiol dihydrochloride], the “Inhibitory potency against APAH” value is “mid-micromolar range”.

On to `CC(=O)SCC(=O)CCCCCNCCCN.Cl.Cl` [V, 7-{[(3-aminopropyl)amino]-2-oxoheptyl} thioacetate dihydrochloride], for which the IC50 is 4 mM and the “Inhibitory potency against APAH” value is “mid-micromolar range”.

For the compound `CS(=O)(=O)CCCCCNCCCN.Cl.Cl` [IX, N^1-[5-(methylsulfonyl)pentyl]propane-1,3-diamine dihydrochloride], the “Inhibitory potency against APAH” value is “millimolar range”.

On to `CC(=O)CCCCCNCCCN.Cl.Cl` [II, 7-[(3-aminopropyl)amino]heptan-2-one dihydrochloride], for which the “Inhibitory potency against APAH” value is reported as “mid-micromolar range”.
